Reference: the Deep4Chem optical property database
Values belong to the compound of their own block, whether it stands above or below them.

Assay: solvent given as SMILES

emission maximum (in CC#N): 491 nm
emission maximum (in O): 526 nm
SMILES: Nc1nc2ccc(F)cc2[n+]([O-])n1

emission maximum (in C1CCCCC1): 338 nm
emission maximum (in C1CCOC1): 353 nm
emission maximum (in C1COCCO1): 352 nm
emission maximum (in CC#N): 359 nm
emission maximum (in CCCCCC): 337 nm
emission maximum (in CO): 362 nm
emission maximum (in ClC(Cl)Cl): 356 nm
SMILES: F[B-]1(F)n2ccnc2-c2cccc[n+]21

emission maximum (in CO): 641 nm
emission maximum (in ClC(Cl)Cl): 640 nm
emission maximum (in O): 657 nm
SMILES: CC(=O)OCCOCCN1C(=O)c2cc(NCCOCCO)c3c4c(cc(NCCOCCO)c(c24)C1=O)C(=O)N(CCOCCOC(C)=O)C3=O

emission maximum (in ClCCl): 434 nm
SMILES: COc1ccc(Oc2ccc3c4c(cccc24)C(=O)N(c2c(C(C)C)cccc2C(C)C)C3=O)cc1

SMILES: CC(C)(C)c1ccc2c(c1)[nH]c1c3[nH]c4cc(C(C)(C)C)ccc4c3c3nsnc3c21
emission maximum (in CN(C)C=O): 507 nm
emission maximum (in Cc1ccccc1): 472 nm
emission maximum (in ClCCl): 502 nm

emission maximum (in C1CCOC1): 668 nm
emission maximum (in CS(C)=O): 676 nm
emission maximum (in ClCCl): 661 nm
SMILES: COc1cc(OC)cc(C2=C3C(C)=C(I)C(C)=[N+]3[B-](F)(F)n3c(/C=C/c4c[nH]c5ccccc45)c(I)c(C)c32)c1

SMILES: COc1ccc(N(c2ccccc2)c2ccc(OC)cc2)cc1
emission maximum (in Cc1ccccc1): 387 nm

SMILES: O=C1c2ccccc2C(=O)N1c1ccc(Cn2cncn2)cc1
emission maximum (in C1CCOC1): 361 nm
emission maximum (in C1COCCO1): 313 nm
emission maximum (in CC#N): 471 nm
emission maximum (in CC(C)=O): 407 nm
emission maximum (in CC(C)O): 427 nm
emission maximum (in CCCCCC): 310 nm
emission maximum (in CCCCO): 402 nm
emission maximum (in CCO): 422 nm
emission maximum (in CCOC(C)=O): 355 nm
emission maximum (in CCOCC): 339 nm
emission maximum (in CN(C)C=O): 503 nm
emission maximum (in CO): 440 nm
emission maximum (in CS(C)=O): 563 nm
emission maximum (in Cc1ccccc1): 323 nm
emission maximum (in ClCCl): 367 nm

emission maximum (in CO): 416 nm
SMILES: N#Cc1c(-n2nnc3ccccc32)n([C@H]2C[C@H](O)[C@@H](CO)O2)c2ncnc(N)c12

emission maximum (in ClC(Cl)Cl): 472 nm
emission maximum (in O): 460 nm
SMILES: C/C=C/C1=NC(=C\c2ccc(O)cc2)/C(=O)N1C

SMILES: CC(=O)O[B-]1(OC(C)=O)OC(/C=C/C=C/c2ccccc2)=CC(/C=C/C=C/c2ccccc2)=[O+]1
emission maximum (in C1CCOC1): 531 nm
emission maximum (in CC#N): 550 nm
emission maximum (in CC(C)=O): 544 nm
emission maximum (in CS(C)=O): 558 nm
emission maximum (in Cc1ccccc1): 523 nm
emission maximum (in ClC(Cl)Cl): 543 nm
emission maximum (in ClCCl): 545 nm

SMILES: COc1ccc(-c2ccc(-c3ccc(C#N)s3)s2)cc1
emission maximum (in C1CCCCC1): 445 nm
emission maximum (in C1COCCO1): 455 nm
emission maximum (in CC#N): 476 nm
emission maximum (in CC(C)O): 471 nm
emission maximum (in CCCCO): 471 nm
emission maximum (in CCO): 474 nm
emission maximum (in CCOC(C)=O): 461 nm
emission maximum (in CN(C)C=O): 479 nm
emission maximum (in CO): 476 nm
emission maximum (in CS(C)=O): 484 nm
emission maximum (in Cc1ccccc1): 450 nm
emission maximum (in ClC(Cl)Cl): 465 nm
emission maximum (in ClCCl): 468 nm
emission maximum (in O): 529 nm

SMILES: CC(=O)Nc1ccccc1C(=O)OC1CC(C)CCC1C(C)C (stereo not given)
emission maximum (in C1CCCCC1): 363 nm
emission maximum (in CC#N): 369 nm
emission maximum (in CCO): 370 nm
emission maximum (in Cc1ccccc1): 368 nm

emission maximum (in C1COCCO1): 403.62 nm
emission maximum (in CC#N): 419.17 nm
emission maximum (in CCO): 461.12 nm
emission maximum (in CS(C)=O): 427.12 nm
emission maximum (in O): 507.23 nm
SMILES: Cc1c(OCC(=O)O)cc2c3c([nH]c2c1C)C(=O)CCC3

emission maximum (in ClCCl): 506 nm
SMILES: Cc1cccc2nc(-c3ccc(-c4cc(=O)cc(-c5ccccc5)o4)cc3)c(NC3CCCCC3)n12

emission maximum (in ClCCl): 372 nm
SMILES: O=S(=O)(c1ccc2c(c1)c1ccccc1n2-c1ccccc1)c1ccc2c(c1)c1ccccc1n2-c1ccccc1

SMILES: F[B-]1(F)n2cccc2C(c2c3ccccc3cc3ccccc23)=C2C=CC=[N+]21
emission maximum (in CC#N): 519 nm
emission maximum (in CCCCCC): 521 nm
emission maximum (in CCO): 520 nm
emission maximum (in CN(C)C=O): 524 nm
emission maximum (in Cc1ccccc1): 525 nm
emission maximum (in ClCCl): 520 nm

emission maximum (in CC#N): 435 nm
emission maximum (in ClCCl): 437 nm
SMILES: COc1ccc(-c2cc3c(s2)c(-c2ccccc2)cc(=O)n3C)cc1

emission maximum (in ClCCl): 428 nm
SMILES: CCCCCC(=O)c1ccc2c3c(sc2c1)-c1ccccc1P3(=O)c1ccccc1 (stereo not given)

emission maximum (in ClC(Cl)Cl): 557 nm
SMILES: CCOC(CN1C(=O)C2=C(c3cccs3)N(CC(OCC)OCC)C(=O)C2=C1c1cccs1)OCC
